Test results taken from US20250214969A1, “PROTEIN DEGRADERS AND USES THEREOF” (Kymera Therapeutics, Inc., priority 2022, published 2025).

Tests used:
[1] = target: T1, truncated His-MBP-Tev-KLHDC2 (residues 1-363) (Homo sapiens, UniProt Q9Y2U9); test: KLHDC2 FP competition binding assay; conditions: 15 nM KLHDC2 (residues 1-363), 10 nM fluorescein-labeled diglycine peptide probe, read-out: KLHDC2 binding Human FP: average external IC50
T1 construct: truncated His -MBP-Tev-KLHDC2 (residues 1-363) purified from E. coli; made in house; host or cells: E. coli
T1 sequence (Q9Y2U9 1-363): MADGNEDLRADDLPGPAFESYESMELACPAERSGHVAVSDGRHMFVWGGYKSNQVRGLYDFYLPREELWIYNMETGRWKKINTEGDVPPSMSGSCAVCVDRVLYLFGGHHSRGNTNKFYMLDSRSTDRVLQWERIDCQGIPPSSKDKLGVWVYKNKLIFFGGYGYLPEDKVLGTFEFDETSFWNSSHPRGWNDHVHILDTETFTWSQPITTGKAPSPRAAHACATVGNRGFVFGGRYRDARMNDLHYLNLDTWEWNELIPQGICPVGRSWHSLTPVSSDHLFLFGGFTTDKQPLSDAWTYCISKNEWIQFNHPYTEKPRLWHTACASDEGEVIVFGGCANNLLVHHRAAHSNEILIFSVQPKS
Description: FP competition binding assays were performed using 15 nM truncated His -MBP-Tev-KLHDC2 (residues 1-363) purified from E. coli, 10 nM fluorescein-labeled diglycine peptide probe, and test compounds in assay buffer consisting of 50 mM HEPES-Na pH 7.5, 100 mM NaCl, 2 mM DTT, 0.005% Tween-20 with a final volume of 20 uL. Compound stocks were dissolved at 10 mM in 100% DMSO and 11 point titration with 3 fold serial dilution was performed in black, flat bottom 384 well microplates. Plates were incubated at room temperature for 30 minutes. Plates were centrifuged at 1000 rpm for 1 min, data were collected using an Envision plate reader in fluorescence polarization mode with excitation filter FITC FP at 480 nm, emission filter FITC FP P-pol at 535 nm and FITC FP S-pol at 535 nm. FP signal was calculated using the equation (mP=1000*(S-G*P)/(S+G*P), G-factor=1.0) and % Inhibition was calculated using no-protein controls for 100% inhibition and DMSO only reactions for 0l % inhibition (yes).

[2] = target: T1, truncated His-MBP-Tev-KLHDC2 (residues 1-363); test: KLHDC2 HTRF binding assay; conditions: 1 nM KLHDC2 (residues 1-363), fluorescein-labeled diglycine peptide probe

SMILES	IC50 [1] [µM]	IC50 [2] [µM]
CCOC(=O)Cn1cc(NC(=O)c2cc(CCCCCCNC(=O)OC(C)(C)C)cc(-c3cccnc3)c2)ccc1=O [I-162]	> 5	> 5
Cc1ccccc1-c1cccc(C(=O)Nc2ccc(=O)n(CC(=O)O)c2)c1 [I-289]	> 5	> 5
O=C(O)Cn1cc(NC(=O)N2CCC(c3ccccc3)CC2)ccc1=O [I-140]	> 5	> 5
O=C(O)Cn1cc(NC(=O)c2cccc(-c3ccccc3F)c2)ccc1=O [I-288]	> 5	> 5
CC(C)Cn1ccc2c(C(=O)Nc3ccc(=O)n(CC(=O)O)c3)ccnc21 [I-132]	> 5	0.5 to 5
O=C(O)Cn1cc(NC(=O)COc2ccc(Cl)cc2)ccc1=O [I-278]	> 5	> 5
O=C(O)Cn1cc(NC(=O)c2cccc(-c3cccc(C(F)(F)F)c3)c2)ccc1=O [I-200, 2-(2-oxo-5-(3′-(trifluoromethyl)-[1,1′-biphenyl]-3-carboxamido)pyridin-1 (2H)-yl) acetic acid]	> 5	> 5
Cc1cc(C)c(-c2ccc(=O)n(CC(=O)O)c2)cc1C [I-356]	> 5	> 5
O=C(O)Cc1cc(-c2ccccc2)ccc1O [I-335]	> 5	> 5
O=C(O)Cn1cc(N2Cc3cccc(-c4cccnc4)c3C2=O)ccc1=O [I-80]	> 5	> 5
COc1cccc2c(N3CCC[C@H](C(=O)Nc4ccc(=O)n(CC(=O)O)c4)C3)cncc12 [I-9]	< 0.05	< 0.05
Cc1onc(-c2ccc(F)cc2)c1C(=O)Nc1ccc(=O)n(CC(=O)O)c1 [I-254]	> 5	> 5
O=C(O)Cn1cc(C(=O)NCc2ccccc2)ccc1=O [I-373]	> 5	> 5
CC(C)c1ccc(C(=O)Nc2ccc(=O)n(CC(=O)O)c2)cc1-c1ccccc1 [I-175]	> 5	0.5 to 5
O=C(O)Cn1cc(NC(=O)c2cccc(-c3ccncc3)c2)ccc1=O [I-280]	> 5	> 5
O=C(O)Cc1cc(NC(=O)[C@H]2CCCN(c3cccnc3)C2)ccc1Cl [I-35]	0.5 to 5	0.05 to 0.5
CN(C)C(=O)c1ccc(-c2ccc(=O)n(CC(=O)O)c2)cc1Cl [I-388]	> 5	> 5
O=C(O)Cn1cc(NC(=O)[C@@H]2CCCN(c3cccnc3)C2)c(C2CC2)cc1=O [I-58]	> 5	0.5 to 5
O=C(O)Cn1cc(N2CC[C@@]3(CCN(c4cccnc4)C3)C2=O)ccc1=O [I-2]	> 5	0.5 to 5

SMILES	IC50 [1] [µM]	IC50 [2] [µM]
CN(C)C(=O)c1ccc(-c2ccc(=O)n(CC(=O)O)c2)cc1F [I-384]	> 5	> 5
Cc1ccc2nc(C(=O)Nc3ccc(=O)n(CC(=O)O)c3)ccc2c1 [I-187]	> 5	> 5
O=C(O)Cn1cc(-c2cccc(CN3CCCCC3)c2)ccc1=O [I-303]	> 5	> 5
Cc1ccc2c(c1C)NC(C(=O)O)C1CC=CC21 (stereo not shown) [I-426]	> 5	> 5
O=C(O)Cn1cc(CC(=O)Nc2ccccc2)ccc1=O [I-306]	> 5	> 5
O=C(O)Cn1cc(/C=C/c2ccccc2)ccc1=O [I-326]	> 5	> 5
CC1CC(C(=O)Nc2ccc(=O)n(CC(=O)O)c2)CN(c2cccnc2)C1 (stereo not shown) [I-53]	0.5 to 5	0.05 to 0.5
CC(C)c1ccc(C(=O)Nc2ccc(=O)n(CC(=O)O)c2)cc1-c1cccnc1 [I-174]	0.5 to 5	0.5 to 5
O=C(O)Cn1cc(N2CC[C@]3(CCN(c4cccnc4)C3)C2=O)ccc1=O [I-1]	> 5	> 5
CC(C)=Cc1cccc(-c2ccc(=O)n(CC(=O)O)c2)c1 [I-331]	> 5	> 5
O=C(O)Cn1cc(NC(=O)c2cccc(-c3ccccn3)c2)ccc1=O [I-209]	> 5	> 5
CCN(CC)c1ccc2cc(C(=O)Nc3ccc(=O)n(CC(=O)O)c3)c(=O)oc2c1 [I-237]	0.5 to 5	0.05 to 0.5
O=C(Nc1ccnc(C(=O)O)c1)c1cccc(-c2cccnc2)c1 [I-37]	> 5	> 5
NC(=O)Cc1cccc(-c2ccc(=O)n(CC(=O)O)c2)c1 [I-302]	> 5	> 5
O=C(O)Cn1cc(NC(=O)c2nccc3c(Cl)cccc23)ccc1=O [I-248]	> 5	0.5 to 5
CCCCC(=O)Nc1cncc(C(=O)Nc2ccc(=O)n(CC(=O)O)c2)c1 [I-241]	> 5	> 5
O=C(O)Cn1cc(-c2ccccc2Cl)ccc1=O [I-379]	> 5	> 5
CC(NC(=O)CCC(=O)O)C(=O)c1ccccc1 (stereo not shown) [I-219]	> 5	> 5
Cc1ccc(C#N)c(-c2ccc(=O)n(CC(=O)O)c2)c1 [I-364]	> 5	> 5

SMILES	IC50 [1] [µM]	IC50 [2] [µM]
O=C(O)Cc1cc(NC(=O)[C@H]2CCCN(c3cncc4ccccc34)C2)ccc1Cl [I-7]	0.05 to 0.5	< 0.05
O=C(O)C1CC(=O)N(CCOc2ccccc2Cl)C1 (stereo not shown) [I-228]	> 5	> 5
COc1cc(-c2cccnc2)ccc1C(=O)Nc1ccc(=O)n(CC(=O)O)c1 [I-204]	> 5	0.5 to 5
O=C(O)Cn1cc(NC(=O)c2ccccc2)ccc1=O [I-382]	> 5	> 5
O=C(O)Cn1cc(NC(=O)c2ccc(-c3ccccc3Cl)cc2)ccc1=O [I-197]	> 5	> 5
COc1cc(C)c(-c2ccc(=O)n(CC(=O)O)c2)cc1C [I-359]	> 5	> 5
CN1CCN(Cc2cccc(-c3ccc(=O)n(CC(=O)O)c3)c2)CC1 [I-305]	> 5	> 5
Cc1ccc(CC(C)(C)O)cc1-c1ccc(=O)n(CC(=O)O)c1 [I-308]	> 5	> 5
CNc1cncc(N2CCC[C@H](C(=O)Nc3ccc(Cl)c(CC(=O)O)c3)C2)c1 [I-18]	0.5 to 5	0.05 to 0.5
NCCCCCCc1cc(C(=O)Nc2ccc(=O)n(CC(=O)O)c2)cc(-c2cccnc2)c1 [I-166]	0.5 to 5	0.5 to 5
O=C(O)Cn1cc(NC(=O)c2ccc3ccccc3c2)ccc1=O [I-211]	> 5	0.5 to 5
O=C(O)CC1NC(=O)c2ccccc21 (stereo not shown) [I-231]	> 5	> 5
CCOC(=O)Cn1cc(NC(=O)c2cc(CCCCCCN)cc(-c3cccnc3)c2)ccc1=O [I-157]	> 5	> 5
O=C(O)Cn1cc(CC(=O)N2CCCCC2)ccc1=O [I-290]	> 5	> 5
O=C(O)Cn1cc(NC(=O)c2cccc(-c3cncs3)c2)ccc1=O [I-168]	> 5	0.5 to 5
CCc1cncc(N2CCC[C@H](C(=O)Nc3ccc(=O)n(CC(=O)O)c3)C2)c1 [I-39]	0.05 to 0.5	< 0.05
Cn1ccc2c(C(=O)Nc3ccc(=O)n(CC(=O)O)c3)cccc21 [I-145]	> 5	0.5 to 5
CCc1cc(=O)n(CC(=O)O)cc1NC(=O)[C@H]1CCCN(c2cccnc2)C1 [I-50, 2-[4-ethyl-2-oxo-5-[(3S)-1-(3-pyridyl)piperidine-3-carbonyl|amino]-1-pyridyl]acetic acid]	0.5 to 5	0.05 to 0.5
